# In patent US11254663B2 (BRISTOL-MYERS SQUIBB COMPANY, priority 2019, dated 2022):
# Target: FXR (Homo sapiens (Human), UniProt Q96RI1)
# Assay: transient human FXR/Gal4-luciferase reporter assay
# Assay type: cell-based
# Conditions: not given
# Description: A Gal4-hFXR fusion construct reporter system was used as the primary assay to characterize compound activity. A construct including 5 copies of the Gal4 promoter response element upstream of a firefly luciferase reporter cDNA was stably expressed in HEK293 cells. This reporter cell line was maintained in Dulbecco's Modified Eagle's medium (DMEM; Gibco) supplemented with 1% penicillin-streptomycin (P/S) solution, 500 μg/mL Zeocin and 10% charcoal/dextran-treated fetal bovine serum (cs-FBS) at 37° C. in a humidified 5% CO2 atmosphere. Another plasmid was constructed in which the human cytomegalovirus promoter in the pcDNA3.1 vector directs the expression of the cDNA encoding a fusion protein comprised of the DNA binding domain from the Gal4 transcription factor fused to the ligand binding domain from human FXR.
# The day prior to transfection, the reporter cells in culture are detached from the plate with trypsin and plated into a T75 flask at a sufficient density to achieve approximately 90% confluence the next morning. The transfection reagents are prepared by separately diluting 25 μg of the pcDNA3.1-Gal4-FXR plasmid into 1.87 mL of Opti-MEM (Thermo-Fisher), and 40 μL of Lipofectamine 2000 (Thermo-Fisher) into 1.87 mL of Opti-MEM, and then adding the diluted DNA solution into the diluted Lipofectamine 2000 solution and incubating at room temperature for 15-20 minutes. The mixture is further diluted with 10 mL of a solution comprised of DMEM, 10% cs-FBS, and 1% P/S immediately prior to transferring to the cells. The maintenance culture media is aspirated from the cells and the final transfection mixture is added before the cells are incubated overnight at 37° C. in a humidified 5% CO2 atmosphere. This protocol can be scaled up, and the transiently transfected cells can be cryopreserved in an assay-ready format.
# For compound testing, 100 nL of the compounds (serial dilutions in DMSO) are dispensed with an Echo acoustic dispenser (Labcyte) into the wells of a Corning/Costar clear bottom 384-well white plate. The transfected cells are harvested, counted, and diluted such that 10-25,000 cells in 25 μL are plated into each well of the 384-well compound assay plate. The compound-treated cells are incubated overnight at 37° C. in a humidified 5% CO2 atmosphere. The next morning 25 μL of Steady-Glo (Promega) are added to each well of the plate, the mixture is incubated for 15 min. with shaking, and luminescence is measured on an Envision (Perkin Elmer) plate reader.
# Sequence of FXR (Q96RI1 262-486): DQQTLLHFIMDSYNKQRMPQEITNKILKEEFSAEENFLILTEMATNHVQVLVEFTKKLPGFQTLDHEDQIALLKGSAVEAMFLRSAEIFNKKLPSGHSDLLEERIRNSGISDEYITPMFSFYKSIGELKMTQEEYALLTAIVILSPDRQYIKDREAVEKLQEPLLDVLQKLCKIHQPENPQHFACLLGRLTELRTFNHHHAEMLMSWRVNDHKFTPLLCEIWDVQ
row,SMILES,EC50
1,"COc1ncc(-c2ccnc(N(CC34CCC(c5noc(C(C)(C)C)n5)(CC3)CC4)C(=O)C34CC(F)(C3)C4)c2)cn1 [Example 538, N-((4-(5-(tert-butyl)-1,2,4-oxadiazol-3-yl)bicyclo[2.2.2]octan-1-yl)methyl)-3-fluoro-N-(4-(2-methoxypyrimidin-5-yl)pyridin-2-yl)bicyclo[1.1.1]pentane-1-carboxamide]",0.121 µM
2,"CCOc1ccc(-c2cncc(N(CC34CCC(c5nc(C(C)(C)C)no5)(CC3)CC4)C(=O)C34CC(F)(C3)C4)c2)cn1 [Example 477, N-((4-(3-(tert-butyl)-1,2,4-oxadiazol-5-yl)bicyclo[2.2.2]octan-1-yl)methyl)-N-(6′-ethoxy-[3,3′-bipyridin]-5-yl)-3-fluorobicyclo[1.1.1]pentane-1-carboxamide]",0.485 µM

# Same assay, conditions: Gal4-hFXR fusion construct, HEK293 reporter cells; response relative to 8 μM GW-4064
row,SMILES,EC50
1,"Cc1nc2c(C(F)(F)F)cc(-c3cccc(N(CC45CCC(c6nc(C7CC7)no6)(CC4)CC5)C(=O)C45CC(F)(C4)C5)c3)cn2n1 [Example 321, N-((4-(3-cyclopropyl-1,2,4-oxadiazol-5-yl)bicyclo[2.2.2]octan-1-yl)methyl)-3-fluoro-N-(3-(2-methyl-8-(trifluoromethyl)-[1,2,4]triazolo[1,5-a]pyridin-6-yl)phenyl) bicyclo[1.1.1]pentane-1-carboxamide]",1.46 µM
2,"CC(C)c1noc(C23CCC(CN(C(=O)C45CC(F)(C4)C5)c4cccc(-c5ccc6c(c5)OC(F)(F)O6)c4)(CC2)CC3)n1 [Example 386, N-(3-(2,2-difluorobenzo[d][1,3]dioxol-5-yl)phenyl)-3-fluoro-N-((4-(3-isopropyl-1,2,4-oxadiazol-5-yl)bicyclo[2.2.2]octan-1-yl)methyl)bicyclo[1.1.1]pentane-1-carboxamide]",0.274 µM
3,"COc1cc(-c2cccc(N(CC34CCC(c5ccnc(C)c5)(CC3)CC4)C(=O)C34CC(F)(C3)C4)c2)ccn1 [Example 238, 3-Fluoro-N-(3-(2-methoxypyridin-4-yl)phenyl)-N-((4-(2-methylpyridin-4-yl)bicyclo[2.2.2]octan-1-yl)methyl)bicyclo[1.1.1]pentane-1-carboxamide]",0.517 µM
4,"CCOc1ncc(-c2cccc(N(CC34CCC(c5nc(C(C)(C)C)no5)(CC3)CC4)C(=O)C34CC(F)(C3)C4)c2)cn1 [Example 357, N-((4-(3-(tert-butyl)-1,2,4-oxadiazol-5-yl)bicyclo[2.2.2]octan-1-yl)methyl)-N-(3-(2-ethoxypyrimidin-5-yl)phenyl)-3-fluorobicyclo[1.1.1]pentane-1-carboxamide]",0.083 µM
5,"Cc1nc2ccc(-c3cccc(N(CC45CCC(c6cc(C(F)(F)F)ccn6)(CC4)CC5)C(=O)C45CC(F)(C4)C5)c3)cc2s1 [Example 356, 3-fluoro-N-(3-(2-methylbenzo[d]thiazol-6-yl)phenyl)-N-((4-(4-(trifluoromethyl)pyridin-2-yl)bicyclo[2.2.2]octan-1-yl)methyl)bicyclo[1.1.1]pentane-1-carboxamide]",0.8 µM
6,"Cc1cc(-c2cccc(N(CC34CCC(c5nc(C6CC6)no5)(CC3)CC4)C(=O)C34CC(F)(C3)C4)c2)nc2scnc12 [Example 327, N-((4-(3-cyclopropyl-1,2,4-oxadiazol-5-yl)bicyclo[2.2.2]octan-1-yl)methyl)-3-fluoro-N-(3-(7-methylthiazolo[5,4-b]pyridin-5-yl)phenyl)bicyclo[1.1.1]pentane-1-carboxamide]",0.303 µM
7,"CS(=O)(=O)Nc1cccc(-c2cccc(N(CC34CCC(c5nc(C6CC6)no5)(CC3)CC4)C(=O)C34CC(F)(C3)C4)c2)c1 [Example 256, N-((4-(3-cyclopropyl-1,2,4-oxadiazol-5-yl)bicyclo[2.2.2]octan-1-yl)methyl)-3-fluoro-N-(3′-(methylsulfonamido)-[1,1′-biphenyl]-3-yl)bicyclo[1.1.1]pentane-1-carboxamide]",0.219 µM
8,"CCOc1ncc(-c2cccc(N(CC34CCC(c5noc(C6(C)CC6)n5)(CC3)CC4)C(=O)C34CC(F)(C3)C4)c2)cn1 [Example 396, N-(3-(2-ethoxypyrimidin-5-yl)phenyl)-3-fluoro-N-((4-(5-(1-methylcyclopropyl)-1,2,4-oxadiazol-3-yl)bicyclo[2.2.2]octan-1-yl)methyl)bicyclo[1.1.1]pentane-1-carboxamide]",0.046 µM
9,"O=C(N(CC12CCC(c3nc(C4CC4)no3)(CC1)CC2)c1cccc(-c2cccc(OC(F)(F)F)c2)c1)C12CC(F)(C1)C2 [Example 259, N-((4-(3-cyclopropyl-1,2,4-oxadiazol-5-yl)bicyclo[2.2.2]octan-1-yl)methyl)-3-fluoro-N-(3′-(trifluoromethoxy)-[1,1′-biphenyl]-3-yl)bicyclo[1.1.1]pentane-1-carboxamide]",0.268 µM
10,"Cn1nc(C23CCC(CN(C(=O)C45CC(F)(C4)C5)c4cccc(-c5cnc6nc(C7CC7)sc6c5)c4)(CC2)CC3)cc1C1CC1 [Example 410, N-((4-(5-cyclopropyl-1-methyl-1H-pyrazol-3-yl)bicyclo[2.2.2]octan-1-yl)methyl)-N-(3-(2-cyclopropylthiazolo[4,5-b]pyridin-6-yl)phenyl)-3-fluorobicyclo[1.1.1]pentane-1-carboxamide]",0.465 µM
11,"CC(C)(C#N)Oc1ccc(-c2ccnc(N(CC34CCC(c5noc(C6(F)CC6)n5)(CC3)CC4)C(=O)OC(C)(C)C(F)(F)F)c2)cc1 [Example 625, 1,1,1-trifluoro-2-methylpropan-2-yl(4-(4-((2-cyanopropan-2-yl)oxy)phenyl)pyridin-2-yl) ((4-(5-(1-fluorocyclopropyl)-1,2,4-oxadiazol-3-yl)bicyclo[2.2.2]octan-1-yl)methyl) carbamate]",0.018 µM
12,"CCc1cnc(-c2cccc(N(CC34CCC(c5nc(C(C)C)no5)(CC3)CC4)C(=O)C34CC(F)(C3)C4)c2)nc1 [Example 394, N-(3-(5-ethylpyrimidin-2-yl)phenyl)-3-fluoro-N-((4-(3-isopropyl-1,2,4-oxadiazol-5-yl)bicyclo[2.2.2]octan-1-yl)methyl)bicyclo[1.1.1]pentane-1-carboxamide]",0.077 µM
13,"CCOc1ccc(-c2cccc(N(CC34CCC(c5nc(C(C)C)no5)(CC3)CC4)C(=O)C34CC(F)(C3)C4)c2)cc1 [Example 375, N-(4′-ethoxy-[1,1′-biphenyl]-3-yl)-3-fluoro-N-((4-(3-isopropyl-1,2,4-oxadiazol-5-yl)bicyclo[2.2.2]octan-1-yl)methyl)bicyclo[1.1.1]pentane-1-carboxamide]",0.061 µM
14,"CCOc1ncc(-c2cncc(N(CC34CCC(c5noc(C(C)(C)C)n5)(CC3)CC4)C(=O)C34CC(F)(C3)C4)c2)cn1 [Example 478, N-((4-(5-(tert-butyl)-1,2,4-oxadiazol-3-yl)bicyclo[2.2.2]octan-1-yl)methyl)-N-(5-(2-ethoxypyrimidin-5-yl)pyridin-3-yl)-3-fluorobicyclo[1.1.1]pentane-1-carboxamide]",1.1 µM
15,"CC(C)c1noc(C23CCC(CN(C(=O)C45CC(F)(C4)C5)c4cccc(-c5cnc(C6CC6)nc5)c4)(CC2)CC3)n1 [Example 385, N-(3-(2-cyclopropylpyrimidin-5-yl)phenyl)-3-fluoro-N-((4-(3-isopropyl-1,2,4-oxadiazol-5-yl)bicyclo[2.2.2]octan-1-yl)methyl)bicyclo[1.1.1]pentane-1-carboxamide]",0.035 µM
